Like-named read-outs stand apart in the source and are kept apart here. Square brackets hold non-standard residues; d marks the D form. Peptide text beside a SMILES is read from it. * marks the point of attachment. Tyr(Nα-amidino) = N=C(N)N[C@@H](Cc1ccc(O)cc1)C(=O)*; Cyclopropanecarbonyl = O=C(C1CC1)*; αMeF = C[C@](N)(Cc1ccccc1)C(=O)O; Isonicotinoyl = O=C(c1ccncc1)*; Aib = CC(C)(N)C(=O)O
Legend:
[1] = Solubility test in Britton-Robinson buffer, observed visually; format: physicochemical
Experimental: The test compound of approximately 2 mg was measured precisely. Solvents (10 μL, 20 μL or 40 μL) with different pH (Britton-Robinson buffer (pH 3, 5, 7, 9)) were added to each test compound at 25° C., and the solubility was observed visually.

human glucagon R = biological target: T1, human glucagon R (Homo sapiens, UniProt P47871); test: Agonist activity against human glucagon R, CRE-luciferase reporter assay in hGlucagonR/CRE-LUC/CHO-K1 cells; format: cell-based
T1 construct: expressed in transfected cells; host or cells: CHO-K1 (CRE-LUC/CHO-K1), plasmid hGlucagonR/pMSRα-neo

human GIPR = biological target: T2, human GIPR (Homo sapiens, UniProt P48546); test: Agonist activity against human GIPR, CRE-luciferase reporter assay (rise in intracellular cAMP) in hGIPR/CRE-LUC/CHO-K1 cells; format: cell-based
T2 construct: expressed in transfected cells; host or cells: CHO-K1 (CRE-LUC/CHO-K1), plasmid hGIPR/pMSRα-neo
T2 sequence (P48546 22-466): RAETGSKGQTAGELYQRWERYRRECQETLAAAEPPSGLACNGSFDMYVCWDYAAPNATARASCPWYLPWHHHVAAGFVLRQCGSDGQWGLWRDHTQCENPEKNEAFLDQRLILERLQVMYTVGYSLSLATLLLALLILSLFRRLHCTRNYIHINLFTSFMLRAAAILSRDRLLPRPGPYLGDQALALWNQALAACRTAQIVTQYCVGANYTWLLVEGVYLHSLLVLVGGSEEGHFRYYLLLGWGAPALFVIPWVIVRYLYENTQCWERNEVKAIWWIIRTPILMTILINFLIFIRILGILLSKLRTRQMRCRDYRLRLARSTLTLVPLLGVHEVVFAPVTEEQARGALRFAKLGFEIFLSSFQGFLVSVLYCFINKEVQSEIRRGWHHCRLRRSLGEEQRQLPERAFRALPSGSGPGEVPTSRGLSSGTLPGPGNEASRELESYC

human GLP-1R = biological target: T3, human GLP-1R (Homo sapiens, UniProt P43220); test: Agonist activity against human GLP-1R, CRE-luciferase reporter assay in hGLP-1R/CRE-luc/CHO-K1 cells; format: cell-based
T3 construct: expressed in transfected cells; host or cells: CHO-K1, plasmids hGLP-1/pIRESneo3 and Cre-luc(Zeo)

[2] = hGlucagonR/CRE-LUC/CHO-K1 cells, 4 hours incubation, 10 nM glucagon = 100%, read-out: Agonist activity (EC50) hGCGR
[3] = hGIPR/CRE-LUC/CHO-K1 cells, 4 hours incubation, 10 nM GIP = 100%, read-out: Agonist activity (EC50) hGIPR
[4] = hGLP-1R/CRE-luc/CHO-K1 cells, 4 hours incubation, 10 nM GLP-1 = 100%, read-out: Agonist activity (EC50) hGLP-1R

T1 sequence (P47871 26-477): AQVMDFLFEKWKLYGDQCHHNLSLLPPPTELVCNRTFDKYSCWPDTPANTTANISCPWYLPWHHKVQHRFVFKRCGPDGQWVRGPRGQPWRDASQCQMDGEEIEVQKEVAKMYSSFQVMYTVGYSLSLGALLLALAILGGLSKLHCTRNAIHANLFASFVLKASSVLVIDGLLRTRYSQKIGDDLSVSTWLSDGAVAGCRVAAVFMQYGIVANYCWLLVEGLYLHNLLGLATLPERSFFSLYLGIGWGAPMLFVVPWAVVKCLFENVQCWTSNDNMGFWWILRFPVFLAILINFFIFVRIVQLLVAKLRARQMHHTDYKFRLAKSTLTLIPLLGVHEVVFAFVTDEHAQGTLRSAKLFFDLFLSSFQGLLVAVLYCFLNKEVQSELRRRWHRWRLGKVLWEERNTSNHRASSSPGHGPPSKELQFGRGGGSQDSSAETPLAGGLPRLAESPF
T3 sequence (P43220 24-463): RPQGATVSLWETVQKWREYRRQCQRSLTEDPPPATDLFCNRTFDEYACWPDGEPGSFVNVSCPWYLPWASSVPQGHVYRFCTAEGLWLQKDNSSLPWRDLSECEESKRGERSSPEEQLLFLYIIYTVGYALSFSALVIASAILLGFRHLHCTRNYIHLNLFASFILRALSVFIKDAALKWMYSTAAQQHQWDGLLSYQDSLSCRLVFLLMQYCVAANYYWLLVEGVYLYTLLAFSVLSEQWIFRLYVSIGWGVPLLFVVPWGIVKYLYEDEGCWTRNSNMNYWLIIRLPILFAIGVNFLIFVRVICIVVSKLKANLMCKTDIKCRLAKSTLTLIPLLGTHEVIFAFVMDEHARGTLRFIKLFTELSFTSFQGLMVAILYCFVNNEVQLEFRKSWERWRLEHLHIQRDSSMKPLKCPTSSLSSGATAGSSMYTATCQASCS

With `CC[C@H](C)[C@H](NC(=O)C(C)(C)NC(=O)[C@H](Cc1ccc(O)cc1)NC(=O)[C@H](CC(=O)O)NC(=O)[C@H](CO)NC(=O)[C@@H](NC(=O)[C@](C)(Cc1ccccc1)NC(=O)[C@@H](NC(=O)CNC(=O)[C@H](CCC(=O)O)NC(=O)C(C)(C)NC(=O)[C@@H](N)Cc1ccc(O)cc1)[C@@H](C)O)[C@@H](C)O)C(=O)NC(C)(C)C(=O)N[C@@H](CC(C)C)C(=O)N[C@@H](CC(=O)O)C(=O)N[C@@H](CCCCN)C(=O)N[C@@H](CCC(N)=O)C(=O)N[C@@H](C)C(=O)N[C@@H](CCC(N)=O)C(=O)N[C@@H](C)C(=O)N[C@@H](CCC(=O)O)C(=O)N[C@@H](Cc1ccccc1)C(=O)N[C@H](C(=O)N[C@@H](CCCCN)C(=O)N[C@@H](Cc1c[nH]c2ccccc12)C(=O)N[C@@H](CC(C)C)C(=O)N[C@@H](CC(C)C)C(=O)N[C@@H](CCCCN)C(=O)NCC(=O)NCC(=O)N1CCC[C@H]1C(=O)N[C@@H](CO)C(=O)N[C@@H](CO)C(=O)NCC(=O)N[C@@H](C)C(=O)N1CCC[C@H]1C(=O)N1CCC[C@H]1C(=O)N1CCC[C@H]1C(=O)N[C@@H](CO)C(=O)N[C@@H](CCCCN)C(N)=O)C(C)C` [Example 2] (H-Y[Aib]EGT[αMeF]TSDY[Aib]I[Aib]LDKQAQAEFVKWLLKGGPSSGAPPPSK-NH2) the solubility ([1]; Britton-Robinson buffer pH 3, 25° C., visual, read-out: Solubility (mg /mL) pH 3) was > 100 mg/mL, the solubility ([1]; Britton-Robinson buffer pH 5, 25° C., visual, read-out: Solubility (mg /mL) pH 5) was > 100 mg/mL and the solubility ([1]; Britton-Robinson buffer pH 7, 25° C., visual, read-out: Solubility (mg /mL) pH 7) was > 50 mg/mL. The solubility ([1]; Britton-Robinson buffer pH 9, 25° C., visual, read-out: Solubility (mg /mL) pH 9) was > 50 mg/mL, the EC50 (human glucagon R) was > 1000 nM and the EC50 (human GIPR) was 0.0068 nM. It also gave an EC50 (human GLP-1R) of 0.016 nM.

In the case of `CC[C@H](C)[C@H](NC(=O)C(C)(C)NC(=O)[C@H](Cc1ccc(O)cc1)NC(=O)[C@H](CC(=O)O)NC(=O)[C@H](CO)NC(=O)[C@@H](NC(=O)[C@](C)(Cc1ccccc1)NC(=O)[C@@H](NC(=O)CNC(=O)[C@H](CCC(=O)O)NC(=O)C(C)(C)NC(=O)[C@H](Cc1ccc(O)cc1)NC(=O)c1ccncc1)[C@@H](C)O)[C@@H](C)O)C(=O)NC(C)(C)C(=O)N[C@@H](CC(C)C)C(=O)N[C@@H](CC(=O)O)C(=O)N[C@@H](CCCCN)C(=O)N[C@@H](CCC(N)=O)C(=O)N[C@@H](C)C(=O)N[C@@H](CCC(N)=O)C(=O)N[C@@H](C)C(=O)N[C@@H](CCC(=O)O)C(=O)N[C@@H](Cc1ccccc1)C(=O)N[C@H](C(=O)N[C@@H](CCCCN)C(=O)N[C@@H](Cc1c[nH]c2ccccc12)C(=O)N[C@@H](CC(C)C)C(=O)N[C@@H](CC(C)C)C(=O)N[C@@H](CCCCN)C(=O)NCC(=O)NCC(=O)N1CCC[C@H]1C(=O)N[C@@H](CO)C(=O)N[C@@H](CO)C(=O)NCC(=O)N[C@@H](C)C(=O)N1CCC[C@H]1C(=O)N1CCC[C@H]1C(=O)N1CCC[C@H]1C(=O)N[C@@H](CO)C(=O)N[C@@H](CCCCN)C(N)=O)C(C)C` [Example 20] (Isonicotinoyl-Y[Aib]EGT[αMeF]TSDY[Aib]I[Aib]LDKQAQAEFVKWLLKGGPSSGAPPPSK-NH2), the EC50 (human glucagon R; [2]) is reported as > 1000 nM, the EC50 (human GIPR; [3]) is reported as 0.026 nM and the EC50 (human GLP-1R; [4]) is reported as 0.13 nM.

With `CC[C@H](C)[C@H](NC(=O)C(C)(C)NC(=O)[C@H](Cc1ccc(O)cc1)NC(=O)[C@H](CC(=O)O)NC(=O)[C@H](CO)NC(=O)[C@@H](NC(=O)[C@](C)(Cc1ccccc1)NC(=O)[C@@H](NC(=O)CNC(=O)[C@H](CCC(=O)O)NC(=O)C(C)(C)NC(=O)[C@H](Cc1ccc(O)cc1)NC(=O)C1CC1)[C@@H](C)O)[C@@H](C)O)C(=O)NC(C)(C)C(=O)N[C@@H](CC(C)C)C(=O)N[C@@H](CC(=O)O)C(=O)N[C@@H](CCCCN)C(=O)N[C@@H](CCC(N)=O)C(=O)N[C@@H](C)C(=O)N[C@@H](CCC(N)=O)C(=O)N[C@@H](C)C(=O)N[C@@H](CCC(=O)O)C(=O)N[C@@H](Cc1ccccc1)C(=O)N[C@H](C(=O)N[C@@H](CCCCN)C(=O)N[C@@H](Cc1c[nH]c2ccccc12)C(=O)N[C@@H](CC(C)C)C(=O)N[C@@H](CC(C)C)C(=O)N[C@@H](CCCCN)C(=O)NCC(=O)NCC(=O)N1CCC[C@H]1C(=O)N[C@@H](CO)C(=O)N[C@@H](CO)C(=O)NCC(=O)N[C@@H](C)C(=O)N1CCC[C@H]1C(=O)N1CCC[C@H]1C(=O)N1CCC[C@H]1C(=O)N[C@@H](CO)C(=O)N[C@@H](CCCCN)C(N)=O)C(C)C` [Example 21] (Cyclopropanecarbonyl-Y[Aib]EGT[αMeF]TSDY[Aib]I[Aib]LDKQAQAEFVKWLLKGGPSSGAPPPSK-NH2) the EC50 (human glucagon R; [2]) was > 1000 nM, the EC50 (human GIPR; [3]) was 0.024 nM and the EC50 (human GLP-1R; [4]) was 0.055 nM.

With `CC[C@H](C)[C@H](NC(=O)C(C)(C)NC(=O)[C@H](Cc1ccc(O)cc1)NC(=O)[C@H](CC(=O)O)NC(=O)[C@H](CO)NC(=O)[C@@H](NC(=O)[C@](C)(Cc1ccccc1)NC(=O)[C@@H](NC(=O)CNC(=O)[C@H](CCC(=O)O)NC(=O)C(C)(C)NC(=O)[C@H](Cc1ccc(O)cc1)NC(=N)N)[C@@H](C)O)[C@@H](C)O)C(=O)NC(C)(C)C(=O)N[C@@H](CC(C)C)C(=O)N[C@@H](CC(=O)O)C(=O)N[C@@H](CCCCN)C(=O)N[C@@H](CCC(N)=O)C(=O)N[C@@H](C)C(=O)N[C@@H](CCC(N)=O)C(=O)N[C@@H](C)C(=O)N[C@@H](CCC(=O)O)C(=O)N[C@@H](Cc1ccccc1)C(=O)N[C@H](C(=O)N[C@@H](CCCCN)C(=O)N[C@@H](Cc1c[nH]c2ccccc12)C(=O)N[C@@H](CC(C)C)C(=O)N[C@@H](CC(C)C)C(=O)N[C@@H](CCCCN)C(=O)NCC(=O)NCC(=O)N1CCC[C@H]1C(=O)N[C@@H](CO)C(=O)N[C@@H](CO)C(=O)NCC(=O)N[C@@H](C)C(=O)N1CCC[C@H]1C(=O)N1CCC[C@H]1C(=O)N1CCC[C@H]1C(=O)N[C@@H](CO)C(=O)N[C@@H](CCCCN)C(N)=O)C(C)C` [Example 22] ({Tyr(Nα-amidino)}-[Aib]EGT[αMeF]TSDY[Aib]I[Aib]LDKQAQAEFVKWLLKGGPSSGAPPPSK-NH2) the EC50 (human glucagon R) was > 1000 nM, the EC50 (human GIPR) was 0.019 nM and the EC50 (human GLP-1R) was 0.035 nM.

In the case of `CC(C)C[C@H](NC(=O)[C@H](CC(C)C)NC(=O)[C@H](Cc1c[nH]c2ccccc12)NC(=O)[C@H](CCCCN)NC(=O)[C@@H](NC(=O)[C@H](Cc1ccccc1)NC(=O)[C@H](CCC(=O)O)NC(=O)[C@H](C)NC(=O)[C@H](CCC(N)=O)NC(=O)[C@H](C)NC(=O)[C@H](CCC(N)=O)NC(=O)[C@H](CCCCN)NC(=O)[C@H](CC(=O)O)NC(=O)[C@H](CC(C)C)NC(=O)[C@H](Cc1ccc(O)cc1)NC(=O)[C@H](CCCCN)NC(=O)C(C)(C)NC(=O)[C@H](Cc1ccc(O)cc1)NC(=O)[C@H](CC(=O)O)NC(=O)[C@H](CO)NC(=O)[C@@H](NC(=O)[C@](C)(Cc1ccccc1)NC(=O)[C@@H](NC(=O)CNC(=O)[C@H](CCC(=O)O)NC(=O)C(C)(C)NC(=O)[C@@H](N)Cc1ccc(O)cc1)[C@@H](C)O)[C@@H](C)O)C(C)C)C(=O)N[C@@H](CCCCN)C(=O)NCC(=O)NCC(=O)N1CCC[C@H]1C(=O)N[C@@H](CO)C(=O)N[C@@H](CO)C(=O)NCC(=O)N[C@@H](C)C(=O)N1CCC[C@H]1C(=O)N1CCC[C@H]1C(=O)N1CCC[C@H]1C(=O)N[C@@H](CO)C(=O)N[C@@H](CCCCN)C(N)=O` [Example 24] (H-Y[Aib]EGT[αMeF]TSDY[Aib]KYLDKQAQAEFVKWLLKGGPSSGAPPPSK-NH2), the solubility ([1]; pH 3) is reported as > 200 mg/mL, the solubility ([1]; pH 5) is reported as > 200 mg/mL and the solubility ([1]; pH 7) is reported as > 200 mg/mL. The solubility ([1]; pH 9) was > 200 mg/mL, the EC50 (human glucagon R; [2]) was > 1000 nM and the EC50 (human GIPR; [3]) was 0.0099 nM. It also gave an EC50 (human GLP-1R; [4]) of 0.011 nM.

With `CC(C)C[C@H](NC(=O)[C@H](CC(C)C)NC(=O)[C@H](Cc1c[nH]c2ccccc12)NC(=O)[C@H](CCCCN)NC(=O)[C@@H](NC(=O)[C@H](Cc1ccccc1)NC(=O)[C@H](CCC(=O)O)NC(=O)[C@H](CCC(N)=O)NC(=O)[C@H](CCC(N)=O)NC(=O)[C@H](C)NC(=O)[C@H](CCC(N)=O)NC(=O)[C@H](CCCCN)NC(=O)[C@H](CC(=O)O)NC(=O)[C@H](CC(C)C)NC(=O)[C@H](Cc1ccc(O)cc1)NC(=O)[C@H](CCCCN)NC(=O)C(C)(C)NC(=O)[C@H](Cc1ccc(O)cc1)NC(=O)[C@H](CC(=O)O)NC(=O)[C@H](CO)NC(=O)[C@@H](NC(=O)[C@](C)(Cc1ccccc1)NC(=O)[C@@H](NC(=O)CNC(=O)[C@H](CCC(=O)O)NC(=O)C(C)(C)NC(=O)[C@@H](N)Cc1ccc(O)cc1)[C@@H](C)O)[C@@H](C)O)C(C)C)C(=O)N[C@@H](CCCCN)C(=O)NCC(=O)NCC(=O)N1CCC[C@H]1C(=O)N[C@@H](CO)C(=O)N[C@@H](CO)C(=O)NCC(=O)N[C@@H](C)C(=O)N1CCC[C@H]1C(=O)N1CCC[C@H]1C(=O)N1CCC[C@H]1C(=O)N[C@@H](CO)C(=O)N[C@@H](CCCCN)C(N)=O` [Example 25] (H-Y[Aib]EGT[αMeF]TSDY[Aib]KYLDKQAQQEFVKWLLKGGPSSGAPPPSK-NH2) the solubility ([1]; pH 3) was > 200 mg/mL, the solubility ([1]; pH 5) was > 200 mg/mL and the solubility ([1]; pH 7) was > 200 mg/mL. For the same molecule, the solubility ([1]; pH 9) was > 200 mg/mL, the EC50 (human glucagon R; [2]) was > 1000 nM and the EC50 (human GIPR; [3]) was 0.013 nM. The EC50 (human GLP-1R; [4]) was 0.014 nM.

— patent US9200051B2, “Peptide compound” (TAKEDA PHARMACEUTICAL COMPANY LIMITED, priority 2013, dated 2015)
